Results from patent US20110044938A1 (NYCOMED GMBH, priority 2006, published 2011).

Legend:
[1] = test system: RKO (RKOp27) human colon adenocarcinoma cells; test: Alamar Blue cell viability assay, anti-proliferative/cytotoxic activity on proliferating RKO subclones; assay type: cell-based; conditions: RKOp27, 72 h, RKO p27 uninduced (proliferating) cells, value = class bound given in Table A, read-out: −logIC50 RKO p27 uninduced (proliferating) (converted)
Outline: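 RKOp27 subclones (5000 cells/well) were exposed 24 h after seeding to semi-log compound dilutions in DMEM with 10% FCS, in quadruplicate, for 72 h at 37 °C. Viability was read by Alamar Blue fluorescence (544/590 nm) relative to untreated cells (1% DMSO medium). IC50 came from concentration-effect curves and is reported as −log IC50 [mol/l].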

[2] = test system: subclones of RKO colon adenocarcinoma cells (RKOp27 or RKOp21) arrested by Ponasterone A; test: Alamar Blue cell viability assay, cell cycle specific mode of action: cells arrested by ectopic p27Kip1 induced by Ponasterone A versus proliferating cells; assay type: cell-based; conditions: Homo sapiens, RKO p27 induced (arrested) cells, 10 μM Ponasterone A, 72 hours, value = class bound given in Table A, read-out: −logIC50 RKO p27 induced (arrested) (converted)
Outline: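 RKOp27 or RKOp21 cells, 15000/well in DMEM/10% FCS, either arrested by p27Kip1 induced with 10 μM Ponasterone A or proliferating without inducer; compound added after 24 h, 72 h at 37° C. Alamar Blue fluorescence (544/590 nm), viability as % of untreated cells; −log IC50 reported.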

| Structure (SMILES) | IC50 [1] [nM] | IC50 [2] [nM] |
| --- | --- | --- |
| COc1cccc(CCC(=O)Nc2sc3c(c2C#N)CCC(OC(=O)NCc2cc(C)nn2C)C3)c1 (stereo not shown) [Example 226, (2,5-Dimethyl-2H-pyrazol-3-ylmethyl)-carbamic acid 3-cyano-2-[3-(3-methoxy-phenyl)-propanoylamino]-4,5,6,7-tetrahydro-benzo[b]thiophen-6-yl ester] | ≤ 501 | ≥ 100000 |
| COc1cccc(CCC(=O)Nc2sc3c(c2C#N)CCC(OC(=O)NCc2cnoc2C)C3)c1 (stereo not shown) [Example 227, (5-Methyl-isoxazol-4-ylmethyl)-carbamic acid 3-cyano-2-[3-(3-methoxy-phenyl)-propanoylamino]-4,5,6,7-tetrahydro-benzo[b]thiophen-6-yl ester] | ≤ 501 | ≥ 100000 |
| COc1cccc(CCC(=O)Nc2sc3c(c2C#N)CCC(OC(=O)NCc2conc2C)C3)c1 (stereo not shown) [Example 228, (3-Methyl-isoxazol-4-ylmethyl)-carbamic acid 3-cyano-2-[3-(3-methoxy-phenyl)-propanoylamino]-4,5,6,7-tetrahydro-benzo[b]thiophen-6-yl ester] | ≤ 501 | ≥ 100000 |
| COc1cccc(CCC(=O)Nc2sc3c(c2C#N)CCC(OC(=O)NCc2ccno2)C3)c1 (stereo not shown) [Example 229, Isoxazol-5-ylmethyl-carbamic acid 3-cyano-2-[3-(3-methoxy-phenyl)-propanoylamino]-4,5,6,7-tetrahydro-benzo[b]thiophen-6-yl ester] | 501 to 2000 | ≥ 100000 |
| COc1cccc(CCC(=O)Nc2sc3c(c2C#N)CCC(OC(=O)NCc2cc(C)no2)C3)c1 (stereo not shown) [Example 230, (3-Methyl-isoxazol-5-ylmethyl)-carbamic acid 3-cyano-2-[3-(3-methoxy-phenyl)-propanoylamino]-4,5,6,7-tetrahydro-benzo[b]thiophen-6-yl ester] | 501 to 2000 | ≥ 100000 |
| COc1cccc(CCC(=O)Nc2sc3c(c2C#N)CCC(OC(=O)N2CCOCC2)C3)c1 (stereo not shown) [Example 231, Morpholine-4-carboxylic acid 3-cyano-2-[3-(3-methoxy-phenyl)-propanoylamino]-4,5,6,7-tetrahydro-benzo[b]thiophen-6-yl ester] | ≤ 501 | ≥ 100000 |
| COc1cccc(CCC(=O)Nc2sc3c(c2C#N)CCC(OC(=O)NCc2csc(C)n2)C3)c1 (stereo not shown) [Example 232, (2-Methyl-thiazol-4-ylmethyl)-carbamic acid 3-cyano-2-[3-(3-methoxy-phenyl)-propanoylamino]-4,5,6,7-tetrahydro-benzo[b]thiophen-6-yl ester] | 501 to 2000 | ≥ 100000 |
| CNC(=O)OCC1CCc2c(sc(NC(=O)CCc3cccc(OC)c3)c2C#N)C1 (stereo not shown) [Example 233, Methyl-carbamic acid 3-cyano-2-[3-(3-methoxy-phenyl)-propanoylamino]-4,5,6,7-tetrahydro-benzo[b]thiophen-6-ylmethyl ester] | ≤ 501 | ≥ 100000 |
| COCCNC(=O)OCC1CCc2c(sc(NC(=O)CCc3cccc(OC)c3)c2C#N)C1 (stereo not shown) [Example 234, (2-Methoxy-ethyl)-carbamic acid 3-cyano-2-[3-(3-methoxy-phenyl)-propanoylamino]-4,5,6,7-tetrahydro-benzo[b]thiophen-6-ylmethyl ester] | ≤ 501 | ≥ 100000 |
| COc1cccc(CCC(=O)Nc2sc3c(c2C#N)CCC(COC(=O)NCc2ccccn2)C3)c1 (stereo not shown) [Example 235, Pyridin-2-ylmethyl-carbamic acid 3-cyano-2-[3-(3-methoxy-phenyl)-propanoylamino]-4,5,6,7-tetrahydro-benzo[b]thiophen-6-ylmethyl ester] | 501 to 2000 | ≥ 100000 |
| COc1cccc(CCC(=O)Nc2sc3c(c2C#N)CCC(COC(=O)NCCn2ccnc2)C3)c1 (stereo not shown) [Example 236, (2-Imidazol-1-yl-ethyl)-carbamic acid 3-cyano-2-[3-(3-methoxy-phenyl)-propanoylamino]-4,5,6,7-tetrahydro-benzo[b]thiophen-6-ylmethyl ester] | 501 to 2000 | ≥ 100000 |
| COc1cccc(CCC(=O)Nc2sc3c(c2C#N)CCC(COC(=O)NCc2ccnn2C)C3)c1 (stereo not shown) [Example 237, (2-Methyl-2H-pyrazol-3-ylmethyl)-carbamic acid 3-cyano-2-[3-(3-methoxy-phenyl)-propanoylamino]-4,5,6,7-tetrahydro-benzo[b]thiophen-6-ylmethyl ester] | 501 to 2000 | ≥ 100000 |
| COc1cccc(CCC(=O)Nc2sc3c(c2C#N)CCC(COC(=O)NCc2cn(C)cn2)C3)c1 (stereo not shown) [Example 238, (1-Methyl-1H-imidazol-4-ylmethyl)-carbamic acid 3-cyano-2-[3-(3-methoxy-phenyl)-propanoylamino]-4,5,6,7-tetrahydro-benzo[b]thiophen-6-ylmethyl ester] | 501 to 2000 | ≥ 100000 |
| COc1cccc(CCC(=O)Nc2sc3c(c2C#N)CCC(COC(=O)NCc2cnn(C)c2)C3)c1 (stereo not shown) [Example 239, (1-Methyl-1H-pyrazol-4-ylmethyl)-carbamic acid 3-cyano-2-[3-(3-methoxy-phenyl)-propanoylamino]-4,5,6,7-tetrahydro-benzo[b]thiophen-6-ylmethyl ester] | ≤ 501 | ≥ 100000 |
| COc1cccc(CCC(=O)Nc2sc3c(c2C#N)CCC(COC(=O)NCc2cc(C)on2)C3)c1 (stereo not shown) [Example 240, (5-Methyl-isoxazol-3-ylmethyl)-carbamic acid 3-cyano-2-[3-(3-methoxy-phenyl)-propanoylamino]-4,5,6,7-tetrahydro-benzo[b]thiophen-6-ylmethyl ester] | ≤ 501 | ≥ 100000 |
| COc1cccc(CCC(=O)Nc2sc3c(c2C#N)CCC(COC(=O)NCC2CCCO2)C3)c1 (stereo not shown) [Example 241, (Tetrahydro-furan-2-ylmethyl)-carbamic acid 3-cyano-2-[3-(3-methoxy-phenyl)-propanoylamino]-4,5,6,7-tetrahydro-benzo[b]thiophen-6-ylmethyl ester] | 501 to 2000 | ≥ 100000 |
| COc1cccc(CCC(=O)Nc2sc3c(c2C#N)CCC(COC(=O)NCc2cnoc2C)C3)c1 (stereo not shown) [Example 242, (5-Methyl-isoxazol-4-ylmethyl)-carbamic acid 3-cyano-2-[3-(3-methoxy-phenyl)-propanoylamino]-4,5,6,7-tetrahydro-benzo[b]thiophen-6-ylmethyl ester] | ≤ 501 | ≥ 100000 |
| COc1cccc(CCC(=O)Nc2sc3c(c2C#N)CCC(COC(=O)NCc2ccno2)C3)c1 (stereo not shown) [Example 243, Isoxazol-5-ylmethyl-carbamic acid 3-cyano-2-[3-(3-methoxy-phenyl)-propanoylamino]-4,5,6,7-tetrahydro-benzo[b]thiophen-6-ylmethyl ester] | 501 to 2000 | ≥ 100000 |
| COc1cccc(CCC(=O)Nc2sc3c(c2C#N)CCC(COC(=O)NCc2cc(C)no2)C3)c1 (stereo not shown) [Example 244, (3-Methyl-isoxazol-5-ylmethyl)-carbamic acid 3-cyano-2-[3-(3-methoxy-phenyl)-propanoylamino]-4,5,6,7-tetrahydro-benzo[b]thiophen-6-ylmethyl ester] | ≤ 501 | ≥ 100000 |
| COc1cccc(CCC(=O)Nc2sc3c(c2C#N)CCC(COC(=O)N2CCOCC2)C3)c1 (stereo not shown) [Example 245, Morpholine-4-carboxylic acid 3-cyano-2-[3-(3-methoxy-phenyl)-propanoylamino]-4,5,6,7-tetrahydro-benzo[b]thiophen-6-ylmethyl ester] | ≤ 501 | ≥ 100000 |
| COc1cccc(CCC(=O)Nc2sc3c(c2C#N)CCC(COC(=O)N2CCCC2)C3)c1 (stereo not shown) [Example 246, Pyrrolidine-1-carboxylic acid 3-cyano-2-[3-(3-methoxy-phenyl)-propanoylamino]-4,5,6,7-tetrahydro-benzo[b]thiophen-6-ylmethyl ester] | ≤ 501 | ≥ 100000 |
| COc1cccc(CCC(=O)Nc2sc3c(c2C#N)CCC(COC(=O)NCc2csc(C)n2)C3)c1 (stereo not shown) [Example 247, (2-Methyl-thiazol-4-ylmethyl)-carbamic acid 3-cyano-2-[3-(3-methoxy-phenyl)-propanoylamino]-4,5,6,7-tetrahydro-benzo[b]thiophen-6-ylmethyl ester] | ≤ 501 | ≥ 100000 |
| CCNC(=O)OC1CCc2c(sc(NC(=O)CCc3cccc(OC)c3)c2C#N)C1 (stereo not shown) [Example 248, Ethyl-carbamic acid 3-cyano-2-[3-(3-methoxy-phenyl)-propanoylamino]-4,5,6,7-tetrahydro-benzo[b]thiophen-6-yl ester] | ≤ 501 | ≥ 100000 |
| COc1cccc(CCC(=O)Nc2sc3c(c2C#N)CCC(OC(=O)NC2CC2)C3)c1 (stereo not shown) [Example 249, Cyclopropyl-carbamic acid 3-cyano-2-[3-(3-methoxy-phenyl)-propanoylamino]-4,5,6,7-tetrahydro-benzo[b]thiophen-6-yl ester] | ≤ 501 | ≥ 100000 |
| COc1cccc(CCC(=O)Nc2sc3c(c2C#N)CCC(OC(=O)NCCO)C3)c1 (stereo not shown) [Example 250, (2-Hydroxy-ethyl)-carbamic acid 3-cyano-2-[3-(3-methoxy-phenyl)-propanoylamino]-4,5,6,7-tetrahydro-benzo[b]thiophen-6-yl ester] | ≤ 501 | ≥ 100000 |
| COc1cccc(CCC(=O)Nc2sc3c(c2C#N)CCC(OC(=O)NC2CCOCC2)C3)c1 (stereo not shown) [Example 251, (Tetrahydro-pyran-4-yl)-carbamicacid 3-cyano-2-[3-(3-methoxy-phenyl)-propanoylamino]-4,5,6,7-tetrahydro-benzo[b]thiophen-6-yl ester] | 501 to 2000 | ≥ 100000 |
